Measurements: US20100040762A1 (Plantextrakt GmbH & Co. KG, priority 2006, published 2010)

Columns and labels:
[1] = test system: isolated rat brain hippocampal section preparation; assay: isolated rat brain hippocampal section preparation, extra-cellular field potentials after electrical stimulation; conditions: in vitro, single stimulus excitation and theta-burst stimulation
Protocol: The measured field potentials were recorded after a single stimulus excitation and theta-burst stimulation.

Fischer-344 rats = assay: tele-stereo-EEG on unrestrained rats; type: in vivo, rat; conditions: oral administration; frontal cortex, hippocampus, striatum, reticular formation
Protocol: Supplementing in-vivo experiments on unrestrained rats by means of quantitative detection of the electric brain activity (tele-stereo-EEG). Observed were adult, unrestrained Fischer-344 rats with implanted 4 bipolar concentric brain electrodes. A continuous in-vivo analysis of the electric field potential (tele-stereo-EEG) of the frontal cortex, hippocampus, striatum, and reticular formation was performed analogous to Dimpfel et. al 1986. Additionally, the mobility of the rats was measured using a video tracking system by GJB […] GmbH, […], Germany. […] The “tele-stereo-EEG” model on unrestrained rats was chosen as the in-vivo model to validate results that were obtained following the rat-hippocampus in-vitro experiments, in particular the crossing of the blood-brain barrier for the described substances.

Row | SMILES | influence on hippocampal electrical activity [1] | electric field potentials (tele-stereo-EEG) (Fischer-344 rats)
1 | CCNC(=O)CC[C@H](N)C(=O)O [theanine, 5-N-ethyl-L-glutamine] | opposite effect | principally contribute to the measured results
2 | N[C@@H](CCC(=O)O)C(=O)O [Glutamic acid, glutamic acid] | stimulating substances | –
3 | O=C(O)[C@]1(O)C[C@@H](O)[C@@H](O)[C@H](O)C1 [quinic acid] | stimulating substances | principally contribute to the measured results
4 | O=C(O[C@@H]1C[C@@](O)(C(=O)O)C[C@@H](O)[C@@H]1O)c1cc(O)c(O)c(O)c1 [theogallin, 5-galloyl quinic acid] | stimulating substances | principally contribute to the measured results
